# “Also recorded” adds a separate entry of the source.
# What was measured:
# [1] = system: ACE and ACE2 in kidney cortex; experiment: 7-Mca-YVADAPK(Dnp) fluorescence assay in kidney cortex tissue extracts; assay type: biochemical, mouse; details: for fluorescence signal, % of control: EDTA 1 mmol/L, captopril and MLN-4760 alone or concomitantly
# [2] = system: db/m and db/db mice; experiment: Glomerular fibronectin staining after chronic ACE2 inhibition; assay type: in vivo, mouse
# Procedure: Pharmacological ACE2 inhibition in db/m and db/db mice. A specific ACE2 inhibitor, MLN-4760 (kind gift from Millennium Pharmaceuticals, Cambridge, Mass.) was injected to db/m and db/db mice subcutaneously (40-80 mg per kg of body weight (mg/kg/BW), every other day), starting at 8 weeks of age until the mice reached the age of 24 weeks. Vehicle control mice received injections of sterile PBS in the same volume.
# Chronic ACE2 inhibition was also associated with an increased glomerular deposition of fibronectin, an extracellular matrix protein. In glomeruli from db/m mice receiving MLN-4760, fibronectin staining was increased as compared to their vehicle-treated db/m counterparts. In db/db mice, the MLN-4760 administration was also associated with an exaggeration of fibronectin staining. The number of glomeruli with strong fibronectin staining was used to semi-quantify the observed changes in kidneys from 12-16 animals in each group.
# [3] = target: T1, human recombinant (hr) ACE2 (Homo sapiens, UniProt Q9BYF1); experiment: Fluorescence quenching with 7-Mca-YVADAPK(Dnp) substrate on recombinant ACE2; assay type: biochemical; details: for quenching of fluorescence: hrACE2 20 nmol/L, inhibitor concentration up to 100 μmol/L
# T1 construct: purchased R&D Systems
# Procedure: A fluorescent substrate of ACE and ACE2, i.e., 7-Mca-YVADAPK(Dnp) (R&D Systems), was used to concurrently assay ACE and ACE2 protein activity in tissue samples. Cleavage of this substrate by either enzyme removes the 2,4-dinitrophenyl moiety that quenches the fluorescence of the 7-methoxycoumarin moiety, thus resulting in increased fluorescence. To prevent undesirable hydrolysis of the substrate by a range of non-metalloprotease enzymes from mouse tissues, all tests were performed with the addition of an inhibitor cocktail (complete EDTA-free tablets, Roche).
# MLN-4760 quenched the signal completely at 1-10 nmol/L, whereas a higher concentration (100 nmol/L) of DX600 was needed to achieve complete quenching of the signal. Therefore, further studies were done using MLN-4760. In tissue extracts, the concentrations of MLN-4760 required for fluorescence quenching were high and more variable.
# [4] = system: db/m and db/db mice; experiment: Urinary albumin/creatinine ratio during chronic ACE2 inhibition in db/m and db/db mice; assay type: in vivo, mouse
# Text: Pharmacological ACE2 inhibition in db/m and db/db mice. […] Vehicle control mice received injections of sterile PBS in the same volume. […] Urinary albumin/creatinine ratio. ELISA kits for murine urinary albumin and creatinine companion kits from Exocell were used according to manufacturer's instructions to measure albumin/creatinine ratio in urine samples. Spot urine samples were collected at 8 weeks of age, before initiating the administration of the ACE2 inhibitor, and the AT1 blocker (at 8 weeks of age) and after 12 and 16 weeks of administration of these agents. Statistical analysis. Statistical analysis was performed using unpaired t-test or ANOVA when appropriate. Significance was defined as p<0.05. Data were expressed as mean±SE. The Effect of chronic ACE2 inhibition on albumin excretion and glomerular fibronectin deposition. To determine the extent to which chronic ACE2 inhibition results in increased albuminuria in the db/db mice, a specific ACE2 inhibitor, MLN-4760, was administered to the mice for 16 consecutive weeks starting at 8 weeks of age. At 8 weeks of age, before starting MLN or vehicle administration, db/db mice from both groups had virtually indistinguishable levels of urinary albumin excretion (UAE; 69.5±18 vs. 81±15 μg albumin/mg creatinine, respectively). […] In db/m mice treated with MLN-4760, UAE was higher than in the vehicle-treated db/m controls, but the difference was small and not statistically significant (55±24 vs. 32±3, μg/mg, respectively, p=NS).
# [5] = system: podocytes in culture; details: cited from earlier work
# T1 sequence (Q9BYF1 18-805): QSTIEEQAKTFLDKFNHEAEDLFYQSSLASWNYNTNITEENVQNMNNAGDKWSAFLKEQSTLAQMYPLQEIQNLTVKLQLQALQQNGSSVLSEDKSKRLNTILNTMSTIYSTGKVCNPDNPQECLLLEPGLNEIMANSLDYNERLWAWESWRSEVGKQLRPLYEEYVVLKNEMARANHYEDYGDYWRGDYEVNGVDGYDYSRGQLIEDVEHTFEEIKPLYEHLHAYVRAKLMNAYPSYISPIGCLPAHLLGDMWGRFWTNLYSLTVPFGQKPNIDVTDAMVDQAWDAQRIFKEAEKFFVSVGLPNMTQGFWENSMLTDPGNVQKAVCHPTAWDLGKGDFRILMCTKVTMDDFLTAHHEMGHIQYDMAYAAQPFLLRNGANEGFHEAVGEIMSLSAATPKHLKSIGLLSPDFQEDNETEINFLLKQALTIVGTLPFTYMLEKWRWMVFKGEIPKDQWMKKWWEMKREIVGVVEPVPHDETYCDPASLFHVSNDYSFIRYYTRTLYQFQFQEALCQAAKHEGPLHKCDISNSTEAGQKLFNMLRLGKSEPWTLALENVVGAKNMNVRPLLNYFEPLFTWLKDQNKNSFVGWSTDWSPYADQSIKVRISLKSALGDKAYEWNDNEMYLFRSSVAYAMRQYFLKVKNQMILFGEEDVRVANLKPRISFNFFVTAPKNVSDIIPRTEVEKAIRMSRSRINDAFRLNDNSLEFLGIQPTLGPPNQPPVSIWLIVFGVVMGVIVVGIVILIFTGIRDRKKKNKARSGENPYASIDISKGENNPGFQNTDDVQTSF
structure (smiles),measurement,setting,value
O=C(O)CN(CCN(CC(=O)O)CC(=O)O)CC(=O)O [EDTA],"fluorescence signal, % of control",[1],about 16 % of control
"CC(C)C[C@H](N[C@@H](Cc1cncn1Cc1cc(Cl)cc(Cl)c1)C(=O)O)C(=O)O [MLN-4760, (S,S)-2-{1-carboxy-2-[3-(3,5-dichlorobenzyl)-3H-imidazol4-yl]-ethylamino}-4-methylpentanoic acid]",percentage of glomeruli with strong fibronectin staining,"[2]; db/db mice treated with MLN-4760, vehicle 28.5%±6.4",54.8%±4.6
same,percentage of glomeruli with strong fibronectin staining,"[2]; db/m mice receiving MLN-4760, vehicle 17.3%±5.2",41.1%±4.1
same,concentration for complete quenching of the signal,[3]; hrACE2,1 to 10 nmol/L
same,"fluorescence signal, % of control",[1],46.4±0.7 % of control
same,increase in UAE in comparison to vehicle db/db controls,"[4]; db/db mice, 16 weeks of treatment, age 24 weeks",about three-fold
same,albumin/creatinine ratio,"[4]; db/db mice, MLN-4760 s.c. 40-80 mg/kg every other day, after 12 weeks of treatment, vehicle 124±23",474 ± 166 µg/mg
same,urinary albumin excretion (UAE),"[4]; db/db mice, after 16 weeks of treatment, age 24 weeks, vehicle 247±53.9",743 ± 200 µg/mg
same,urinary albumin excretion (UAE),"[4]; db/m mice treated with MLN-4760, vehicle 32±3, p=NS",55 ± 24 µg/mg
O=C(O)CC(Cc1ccccc1)C(=O)O (stereo not drawn) [benzyl succinate],quenching of fluorescence,[3],failed to quench fluorescence
same,reduction of fluorescence signal,[1]; benzyl succinate 100 μmol/L,did not reduce significantly the fluorescence signal
C[C@H](CS)C(=O)N1CCC[C@H]1C(=O)O [captopril],effect on stretch-induced increase in ANG II generation,[5],did not abrogate the stretch-induced increase in ANG II generation
same,quenching of fluorescence,[3],failed to quench fluorescence
same,"fluorescence signal, % of control",[1],24.9±1.1 % of control
CCCc1nc2c(C)cc(-c3nc4ccccc4n3C)cc2n1Cc1ccc(-c2ccccc2C(=O)O)cc1 [telmisartan],effect on the increase in urinary albumin associated with the ACE2 inhibitor,"[4]; db/db mice, telmisartan 2 mg/kg/day in drinking water together with s.c. MLN-4760",prevented the increase in urinary albumin excretion; also recorded: completely prevented the increase in urinary albumin
